Patent US20110269716A1, “ANTIOXIDANT COMPOUNDS AND METHODS OF THEIR USE” (priority 2008, published 2011)

How the values were obtained:
PC-3 cells = experiment: Biostability: EPR of conditioned media after exposure to cells; format: in vitro ADME; conditions: after 96 hours of exposure to PC-3 cells vs media without cells
Description: PC-3 cells were seeded in tissue culture flasks (surface area ˜80 cm2). The cells were allowed to attach overnight. Following this, the cells were then treated with the desired concentration of CTMIO or DCTEIO (Compound 1) or vehicle (DMSO alone) i.e. 12 mL of media containing different nitroxide or vehicle was added to each flask. 5 mL of conditioned media (i.e. treatment media that had been incubated with the cells) were removed at 24 h and 96 h. At the 96 h time point, cells in the tissue culture flask were ˜100% confluent (i.e. the surface of the flask was covered by a monolayer of cells). The conditioned media that was removed from the flasks was placed in a falcon and centrifuged at 4° C. to remove any cellular debris that might have been present. The supernatant was then transferred to a new tube and the lid parafilmed to make it as airtight as possible. The tubes of conditioned media were stored at −20° C. until Electron Paramagnetic Resonance (EPR) analysis. […] The samples were run at X-band on a Bruker ELEXSYS E 580 FT/CW X-Band spectrometer at room temperature.

[1] = Log P by shake flask method (octanol/water, UV/vis at 230 nm); format: physicochemical
Description: The solubility and permeability of CTMIO and DCTEIO (Compound 1) were assessed using the shake flask method and UV/vis spectroscopy to measure distribution of the solute as follows:
A sample of octanol containing DCTEIO (3.34 mg, 1 mM) was added to a separating funnel with 10 mL water. The separating funnel was shaken for 5 minutes and the mixture was allowed to separate for 16 hours. Each phase (0.5 mL) was diluted with 5 mL of like solvent, water phase diluted with water and n-octanol phase diluted with n-octanol. This protocol was repeated for CTMIO. The absorbance of each sample was measured by UV/vis spectroscopy at 230 nm. The Log P value was calculated by the following equation: […]

[2] = system: cells affected with Ataxia Telangiectasia (A-T); conditions: Hosokawa et al. 2004; cited from earlier work
A-T cell line KT = experiment: A-T cell survival assay (irradiated cells, Trypan blue count); format: cell-based, human; conditions: 100 μM nitroxide, at least six hours before irradiation at 4 Gy, counted every 24 hours for 4 days
Description: Lymphoblastoid Cell Lines (LCL) of A-T cells and standard cells were used, which were incubated and cultured in the standard conditions. The cell lines of both A-T cells and standard cells were initially divided into four batches, the first batch was not irradiated and not exposed to nitroxide, second batch was irradiated in the absence of nitroxide, the third batch was not irradiated but was exposed to the nitroxide, and the last batch was irradiated in the presence of the nitroxide. All four aliquots were taken from the cultured medium and counted to ensure consistent numbers of cells were present in each aliquot used in the assay. In some experiments comparative experiments were performed with the known nitroxide antioxidant CTMIO. Cells that were treated by the nitroxide studied were exposed for at least six hours prior to the irradiation at the lethal dose of 4 Gy. After dilution, the final concentrations of the nitroxides were made to be 100 μM. Previous experiments have shown that nitroxides generally have minimal toxicity at the concentration of 100 μM, but to confirm this, cell growth was monitored in the presence of the nitroxides but without exposure to irradiation. From this it was evident that there was no significant cytotoxicity with any of the compounds studied.
The concentrations of the cell cultures were monitored every 24 hours after irradiation, for four days. This was conducted via a Trypan blue based assay using a bright-line hemacytometer and an optical microscope. Trypan blue solution enables the discrimination of live cells from dead cells, as the dye is completely absorbed by dead cells, but not by live cells. Under a bright-line hemacytometer, a glass slide specially designed to determine cell concentrations, the blue dead cells fade into the background, enabling the selective count of live cells under an optical microscope. […]
Cell survivability was determined by the ratio of cells irradiated to the cells without irradiation. […] Errors were calculated with 95% confidence intervals. […]

Structure (SMILES): CC1(C)c2ccc(C(=O)O)cc2C(C)(C)N1[O] [CTMIO, 5-carboxy-1,1,3,3-tetramethyl-isoindolin-2-yloxyl, reference compound]
- EPR signal strength of the nitroxide (metabolic conversion to the non-radical hydroxylamine) (PC-3 cells): significant reduction in signal strength
- Log P [1]: −0.47
- protective effect on radiation-induced oxidative stress [2]: protective effect

Structure (SMILES): CCC1(CC)c2cc(C(=O)O)c(C(=O)O)cc2C(CC)(CC)N1[O] [Compound (1), 1,1,3,3-Tetraethyl-5,6-dicarboxylisondoline-2-yloxyl]
- survival of KT cells in the presence of irradiation (A-T cell line KT): improves survival of KT cells
- EPR signal strength of the nitroxide (metabolic conversion to the non-radical hydroxylamine) (PC-3 cells): same signal strength
- logP ([1]; n-octanol/water, shake flask, 1 mM): 0.57

Structure (SMILES): CCC1(CC)c2cc(CO)c(CO)cc2C(CC)(CC)N1[O] [Compound (2), 5,6-Dihydroxymethyl-1,1,3,3-tetraethylisoindolin-2-yloxyl]
- survival of KT cells in the presence of irradiation (A-T cell line KT): improves survival of KT cells

Structure (SMILES): CCC1(CC)c2cc(CP(=O)(O)O)c(CP(=O)(O)O)cc2C(CC)(CC)N1[O] [Compound (3), 5,6-Bis(methylene)diphosphonic acid-1,1,3,3-tetraethylisoindolin-2-yloxyl]
- survival of KT cells in the presence of irradiation (A-T cell line KT): improves survival of KT cells
